{"source": "patent US20190134060A1", "about": "“25-HYDROXYCHOLESTEROL AND METHODS OF USE THEREOF” (priority 2016, published 2019)", "key": {"[1]": {"system": "NMDARs", "settings": "cited from earlier work"}, "[2]": {"system": "rat hippocampal cultures", "experiment": "Oxygen-glucose deprivation (OGD, 2.5 hours)-induced cell death, PI/Hoechst survival", "format": "cell-based", "settings": "for OGD-induced cell death exacerbated by 24S-HC, effect of NMDAR antagonist: co-treatment prior to and during OGD", "method": "(§1) Cell culture. All animal care and experimental procedures were consistent with National Institutes of Health guidelines and were approved by the Washington University Animal Studies Committee. Studies involving animals are reported in accordance with the ARRIVE guidelines for reporting experiments involving animals (12, 13). Rat or mouse hippocampal cultures were prepared from postnatal day 1 to 3, pups of both sexes (85% female) anaesthetized with isoflurane. Hippocampal slices (500 μm thickness) were digested with 1 mg⋅mL^−1 papain in oxygenated LeibovitzL-15 medium (Life Technologies, Gaithersburg, Md., USA). Tissue was mechanically triturated in modified Eagle's medium (Life Technologies) containing 5% horse serum, 5% FCS, 17 mM D glucose, 400 μM glutamine, 50 U⋅mL^−1 penicillin and 50 μg⋅mL^−1 streptomycin. Cells were seeded in modified Eagle's medium at a density of ˜650 cells per mm^2 (onto 25 mm cover glasses coated with 5 mg⋅mL^−1 collagen or 0.1 mg⋅mL^−1 poly-D-lysine with 1 mg⋅mL^−1 laminin). Cultures were incubated at 37° C. in a humidified chamber with 5% CO2/95% air. Cytosine arabinoside (6.7 μM) was added 3-4 days after plating to inhibit glial proliferation. The following day, half of the culture medium was replaced with Neurobasal medium (Life Technologies) plus B27 supplement (Life Technologies).\n(§2) Oxygen-glucose deprivation. Mass cultures (13-14 DIV) were exposed to oxygen-glucose deprivation (OGD), in which original medium containing 25 mM glucose was exchanged for fresh MEM medium […] and exposed to a sealed chamber (Billups-Rothenberg, Del Mar, Calif., USA), humidified and saturated with 95% nitrogen and 5% CO2 at 37° C., for 2.5 hours. The gas exchange followed the specifications of the chamber manufacturer (flow of 20 L⋅minute^−1 for 4 minutes to achieve 100% gas exchange). In some experiments, original medium was exchanged for fresh MEM medium containing the specified drugs immediately prior to OGD exposure. Controls were incubated in MEM medium without oxygen deprivation. Following OGD or control treatment, cells were returned to their original medium and incubated under standard culture conditions until the cell death assay (24 hours later). Hoechst 33342 (5 μM) was used to identify all nuclei and propidium iodide (PI, 3 μM) for 30 minutes to stain nuclei of cells with compromised membranes.\n(§3) Data analysis. Five 10× microscope fields were quantified per condition per experiment, yielding>100 total neurons for each condition. Ratios of healthy neurons were quantified as the fraction of PI-negative neuronal nuclei to total neuronal nuclei. Automated cell counting algorithms (ImageJ software, National Institutes of Health, Bethesda, Md., USA) were used for cell counts. Toxicity experiments were treated as a dependent sample design (32) in which sibling cultures plated in identical media and exposed to OGD at the same time were compared by repeated measures statistics. Results are shown as means±SEM. Comparative statistics were performed with Student's t-test or one-way repeated measures ANOVA where indicated."}, "[3]": {"system": "hippocampal cultures", "experiment": "More severe OGD (3 hours) with NMDAR blockade by MK-801, cell death", "format": "cell-based", "settings": "for normalized survival: n=9 cultures", "method": "As a final test, a more severe OGD insult was applied by increasing OGD exposure time from 2.5 hours to 3 hours to help emphasize any NMDAR-independent mechanisms of OGD-induced death.\nas §2, §3"}, "[4]": {"system": "hippocampal cultures", "experiment": "H2O2 induced toxicity (model of oxidative damage)", "format": "cell-based", "settings": "H2O2 100 μM, 1 hour treatment; in the presence of MK-801", "method": "(§4) FIG. 6A, FIG. 6B, FIG. 6C, FIG. 6D, and FIG. 6E depict graphs showing that 25-HC has an NMDAR-independent protecting effect on OGD-induced cell death. (FIG. 6A) Survival rate was compared between control, OGD (3 hour), OGD (3 hour)+MK-801, and OGD (3 hour) +MK-801+25-HC. […] 25-HC protected against the MK-801 insensitive OGD-induced cell death. (n=12 cultures for each group, one-way repeated measures ANOVA with Bonferroni's post hoc test, *p<0.05, ***p<0.001). […] (FIG. 6C) H2O2 (100 μM, 1 hour treatment) toxicity was used to test neuroprotection of 25-HC. 25-HC again yielded mild but reliable protection (N=10 cultures for each group, one-way repeated measures ANOVA with Bonferroni's post hoc test, *P<0.05). (FIG. 6D) and (FIG. 6E) Neither WT nor CYP46A1 knockout hippocampal neuron cultures from C571Bl/6 mice was sensitive to the mild NMDAR independent neuroprotective effect of 25-HC (N=7 cultures for each group; P>0.05).\n(§5) To further test the NMDAR-independence neuroprotective effect, a model of oxidative damage: H2O2 induced toxicity was used."}, "[5]": {"system": "hippocampal cultures", "experiment": "NMDA-induced cell death (NMDA toxicity) in hippocampal cultures", "format": "cell-based", "method": "If the neuroprotective effects of 25-HC are entirely through antagonism of NMDAR function and endogenous, local 24S-HC, it would be expected that 25-HC should also reduce direct NMDA-induced cell death. NMDA was exogenously applied at either 8 μM or 20 μM to induce mild or severe toxicity (FIG. 5A).\nas §1, §3"}, "[6]": {"system": "hippocampal neuron cultures from C571Bl/6 mice", "experiment": "NMDAR-independent neuroprotection in WT and CYP46A1 knockout mouse hippocampal neuron cultures", "format": "cell-based", "method": "as §4, §5\nCell culture. All animal care and experimental procedures were consistent with National Institutes of Health guidelines and were approved by the Washington University Animal Studies Committee. Studies involving animals are reported in accordance with the ARRIVE guidelines for reporting experiments involving animals (12, 13). […]"}, "[7]": {"system": "NMDARs", "experiment": "Modulation of NMDAR function"}}, "note": "Entries after “also recorded” stand apart in the source; their conditions may differ.", "data": [{"smiles": "C[C@H](CCCC(C)(C)O)[C@H]1CC[C@H]2[C@@H]3CC=C4C[C@@H](O)CC[C@]4(C)[C@H]3CC[C@]12C", "note": "[25-HC, 5-cholestene-3β,25-diol]", "values": [{"measurement": "antagonism of 24S-HC effects on NMDARs", "setting": "[1]", "value": "non-competitively antagonizes"}, {"measurement": "OGD-induced cell death without exogenous 24S-HC", "setting": "[2]; 10 μM 25-HC incubation during the OGD insult", "value": "alleviated"}, {"measurement": "SGE-201-exacerbated OGD injury", "setting": "[2]; 10 μM 25-HC with 1 μM SGE-201", "value": "alleviated"}, {"measurement": "survival rates, treatment before versus after OGD insult", "setting": "[2]; 25-HC before or after OGD insult", "value": "comparable survival rates"}, {"measurement": "OGD-induced cell death relative to 24S-HC and OGD alone", "setting": "[2]; co-treatment 10 μM 25-HC and 2 μM 24S-HC", "value": "significantly alleviated OGD-induced cell death"}, {"measurement": "neuroprotection against MK-801 insensitive OGD-induced cell death", "setting": "[3]; 10 μM 25-HC in the presence of 20 μM MK-801, OGD 3 hours", "value": "mild but significant neuroprotection"}, {"measurement": "neuroprotection against H2O2 induced toxicity", "setting": "[4]", "value": "mild but consistent neuroprotective effect"}, {"measurement": "24S-HC exacerbation of NMDA toxicity", "setting": "[5]; 10 μM 25-HC, 8 μM NMDA + 24S-HC", "value": "significantly alleviated"}, {"measurement": "neuroprotection against NMDA-induced cell death", "setting": "[5]; 10 μM 25-HC, NMDA 8 μM or 20 μM", "value": "no neuroprotection"}, {"measurement": "NMDAR-independent neuroprotective effect", "setting": "[6]; CYP46A1 knockout mouse cultures", "value": "did not extend"}, {"measurement": "NMDAR-independent neuroprotective effect", "setting": "[6]; WT mouse cultures", "value": "did not extend"}]}, {"smiles": "CN[C@H](CC(=O)O)C(=O)O", "note": "[NMDA]", "values": [{"measurement": "cell survival", "setting": "[5]; NMDA at 8 μM and 20 μM", "value": "significantly reduced cell survival"}]}, {"smiles": "N[C@@H](CCCP(=O)(O)O)C(=O)O", "note": "[APV]", "values": [{"measurement": "OGD-induced cell death in AAV-CYP-GFP and AAV-GFP-infected neuron cultures", "setting": "[2]; APV", "value": "prevented OGD-induced cell death"}, {"measurement": "neuroprotection against OGD", "setting": "[2]; administered before and during OGD", "value": "highly neuroprotective"}, {"measurement": "neuroprotection against OGD", "setting": "[2]; administered during the latent period following OGD insult", "value": "much less effective"}, {"measurement": "OGD-induced cell death exacerbated by 24S-HC, effect of NMDAR antagonist", "setting": "[2]", "value": "rescued"}]}, {"smiles": "CC(C)[C@@H](O)CC[C@@H](C)[C@H]1CC[C@H]2[C@@H]3CC=C4C[C@@H](O)CC[C@]4(C)[C@H]3CC[C@]12C", "note": "[24S-HC, 24S-hydroxycholesterol]", "values": [{"measurement": "concentration at which effects on NMDAR function saturate", "setting": "[1]", "value": "~10", "unit": "µM"}, {"measurement": "exogenous concentration needed to potentiate NMDAR function", "setting": "[7]", "value": "~50", "unit": "nM"}, {"measurement": "survival compared to OGD alone", "setting": "[2]; 24S-HC 0.5 μM", "value": "significantly poorer survival"}, {"measurement": "OGD-induced cell death / survival rate", "setting": "[2]; 24S-HC 2 μM, exogenous application, WT rat hippocampal cultures 14 days in vitro", "value": "significantly poorer survival; also recorded: enhanced OGD-induced cell death; also recorded: significantly lower survival rate"}, {"measurement": "effect on survival when administered alone (no OGD)", "setting": "[2]; 24S-HC alone", "value": "Consistent effects of 24S-HC were not observed"}, {"measurement": "concentration dependence of OGD-induced cell death", "setting": "[2]; 24S-HC over a range of 50 nM to 2 μM, rat cultures", "value": "depended on 24S-HC concentration"}, {"measurement": "NMDA toxicity with 24S-HC co-treatment", "setting": "[5]; 8 μM NMDA", "value": "exacerbated NMDA toxicity"}]}, {"smiles": "C[C@H](CCC(C)(C)O)[C@H]1CC[C@H]2[C@@H]3CC=C4C[C@@H](O)CC[C@]4(C)[C@H]3CC[C@]12C", "note": "[SGE-201]", "values": [{"measurement": "OGD injury", "setting": "[2]; 1 μM SGE-201", "value": "exacerbated OGD injury"}, {"measurement": "exacerbation of OGD toxicity", "setting": "[3]; 1 μM SGE-201 in the presence of 20 μM MK-801", "value": "failed to exacerbate OGD toxicity"}, {"measurement": "normalized survival", "setting": "[3]; OGD 3 hours + 20 μM MK-801 + 1 μM SGE-201", "value": "0.64±0.04"}]}, {"smiles": "C[C@]12N[C@H](Cc3ccccc31)c1ccccc12", "note": "[MK-801]", "values": [{"measurement": "OGD-induced cell death exacerbated by 24S-HC, effect of NMDAR antagonist", "setting": "[2]", "value": "prevented"}, {"measurement": "cell death after OGD 3 hours", "setting": "[3]; 20 μM MK-801", "value": "partially rescued"}, {"measurement": "normalized survival", "setting": "[3]; OGD 3 hours + 20 μM MK-801", "value": "0.66±0.03"}]}]}
